From ChEMBL document CHEMBL5465560, “Selectivity Literature for EUbOPEN Chemogenomic Library” (2024)

Experiments:
[1] = target: Transcription initiation factor TFIID subunit 1-like (Homo sapiens) (UniProt Q8IZX4); assay: Selectivity interaction (Human bromodomain panel (DSF assay)) EUB0000233b TAF1L
[2] = target: T1, Serine/threonine-protein kinase D1 (Homo sapiens) (UniProt Q15139); assay: Selectivity interaction (KinomeScan (DiscoverX)) EUB0001049a PRKD1; conditions: at 1 µM
T1 sequence (whole entry): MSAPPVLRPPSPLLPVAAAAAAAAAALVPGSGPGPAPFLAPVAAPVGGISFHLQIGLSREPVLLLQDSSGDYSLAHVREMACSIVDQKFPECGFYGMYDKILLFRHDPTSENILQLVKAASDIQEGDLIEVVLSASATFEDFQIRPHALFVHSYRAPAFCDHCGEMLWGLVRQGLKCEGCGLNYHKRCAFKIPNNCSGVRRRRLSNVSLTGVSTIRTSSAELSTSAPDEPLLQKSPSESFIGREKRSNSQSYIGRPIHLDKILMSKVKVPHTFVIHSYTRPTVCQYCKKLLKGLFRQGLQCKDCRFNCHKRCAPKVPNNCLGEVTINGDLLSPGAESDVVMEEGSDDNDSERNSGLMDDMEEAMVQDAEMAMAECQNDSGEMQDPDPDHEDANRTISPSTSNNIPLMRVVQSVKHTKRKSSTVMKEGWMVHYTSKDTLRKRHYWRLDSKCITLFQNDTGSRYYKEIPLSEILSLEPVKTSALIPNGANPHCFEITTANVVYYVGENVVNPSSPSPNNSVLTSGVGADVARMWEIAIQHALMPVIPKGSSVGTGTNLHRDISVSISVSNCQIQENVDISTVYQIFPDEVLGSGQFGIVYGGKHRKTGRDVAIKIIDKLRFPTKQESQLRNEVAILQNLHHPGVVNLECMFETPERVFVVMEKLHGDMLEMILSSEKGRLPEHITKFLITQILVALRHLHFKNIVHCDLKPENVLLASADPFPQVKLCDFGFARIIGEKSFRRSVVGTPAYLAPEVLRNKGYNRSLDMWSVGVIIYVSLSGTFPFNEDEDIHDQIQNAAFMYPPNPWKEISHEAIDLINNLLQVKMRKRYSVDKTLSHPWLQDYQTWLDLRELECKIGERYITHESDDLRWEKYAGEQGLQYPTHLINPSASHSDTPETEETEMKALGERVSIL

[3] = target: T2, Interleukin-1 receptor-associated kinase 4 (Homo sapiens) (UniProt Q9NWZ3); assay: Selectivity interaction (KinomeScan (DiscoverX)) EUB0001619a IRAK4; conditions: at 1 µM
T2 sequence (whole entry): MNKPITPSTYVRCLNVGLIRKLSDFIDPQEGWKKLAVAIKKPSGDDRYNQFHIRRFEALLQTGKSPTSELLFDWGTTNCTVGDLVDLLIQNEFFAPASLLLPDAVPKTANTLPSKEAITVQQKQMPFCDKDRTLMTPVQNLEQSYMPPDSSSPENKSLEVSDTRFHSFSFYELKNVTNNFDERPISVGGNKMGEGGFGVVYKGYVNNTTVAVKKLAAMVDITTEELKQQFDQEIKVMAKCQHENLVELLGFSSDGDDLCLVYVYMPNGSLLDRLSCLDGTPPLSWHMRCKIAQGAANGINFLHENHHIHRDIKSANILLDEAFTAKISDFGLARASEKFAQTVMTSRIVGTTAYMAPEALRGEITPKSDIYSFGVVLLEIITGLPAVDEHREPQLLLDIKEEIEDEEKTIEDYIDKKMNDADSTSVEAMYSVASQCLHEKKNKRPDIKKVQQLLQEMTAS

[4] = target: Proto-oncogene tyrosine-protein kinase Src (Homo sapiens, UniProt P12931); assay: Selectivity interaction (KinaseProfiler screening (Millipore)) EUB0000601a SRC; conditions: at 3 µM
Sequence of Proto-oncogene tyrosine-protein kinase Src (P12931 2-536 limits assumed): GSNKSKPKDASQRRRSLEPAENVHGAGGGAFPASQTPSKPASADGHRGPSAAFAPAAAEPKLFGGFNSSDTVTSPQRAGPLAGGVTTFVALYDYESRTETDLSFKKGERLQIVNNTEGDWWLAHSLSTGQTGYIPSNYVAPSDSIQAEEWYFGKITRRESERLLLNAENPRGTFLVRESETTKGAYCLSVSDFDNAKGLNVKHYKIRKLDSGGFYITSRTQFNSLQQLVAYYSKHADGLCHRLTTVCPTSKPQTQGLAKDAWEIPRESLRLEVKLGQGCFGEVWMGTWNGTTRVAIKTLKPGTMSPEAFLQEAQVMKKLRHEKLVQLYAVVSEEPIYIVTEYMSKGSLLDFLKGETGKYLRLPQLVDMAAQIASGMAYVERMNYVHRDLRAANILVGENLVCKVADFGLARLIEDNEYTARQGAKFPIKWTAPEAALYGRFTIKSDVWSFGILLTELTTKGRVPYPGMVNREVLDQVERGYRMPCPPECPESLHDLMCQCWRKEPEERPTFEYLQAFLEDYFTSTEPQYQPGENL

[5] = test system: T3, Receptor-type tyrosine-protein kinase FLT3 (Homo sapiens), P36888 [D835Y]; conditions: at 10 µM
T3 sequence (whole entry): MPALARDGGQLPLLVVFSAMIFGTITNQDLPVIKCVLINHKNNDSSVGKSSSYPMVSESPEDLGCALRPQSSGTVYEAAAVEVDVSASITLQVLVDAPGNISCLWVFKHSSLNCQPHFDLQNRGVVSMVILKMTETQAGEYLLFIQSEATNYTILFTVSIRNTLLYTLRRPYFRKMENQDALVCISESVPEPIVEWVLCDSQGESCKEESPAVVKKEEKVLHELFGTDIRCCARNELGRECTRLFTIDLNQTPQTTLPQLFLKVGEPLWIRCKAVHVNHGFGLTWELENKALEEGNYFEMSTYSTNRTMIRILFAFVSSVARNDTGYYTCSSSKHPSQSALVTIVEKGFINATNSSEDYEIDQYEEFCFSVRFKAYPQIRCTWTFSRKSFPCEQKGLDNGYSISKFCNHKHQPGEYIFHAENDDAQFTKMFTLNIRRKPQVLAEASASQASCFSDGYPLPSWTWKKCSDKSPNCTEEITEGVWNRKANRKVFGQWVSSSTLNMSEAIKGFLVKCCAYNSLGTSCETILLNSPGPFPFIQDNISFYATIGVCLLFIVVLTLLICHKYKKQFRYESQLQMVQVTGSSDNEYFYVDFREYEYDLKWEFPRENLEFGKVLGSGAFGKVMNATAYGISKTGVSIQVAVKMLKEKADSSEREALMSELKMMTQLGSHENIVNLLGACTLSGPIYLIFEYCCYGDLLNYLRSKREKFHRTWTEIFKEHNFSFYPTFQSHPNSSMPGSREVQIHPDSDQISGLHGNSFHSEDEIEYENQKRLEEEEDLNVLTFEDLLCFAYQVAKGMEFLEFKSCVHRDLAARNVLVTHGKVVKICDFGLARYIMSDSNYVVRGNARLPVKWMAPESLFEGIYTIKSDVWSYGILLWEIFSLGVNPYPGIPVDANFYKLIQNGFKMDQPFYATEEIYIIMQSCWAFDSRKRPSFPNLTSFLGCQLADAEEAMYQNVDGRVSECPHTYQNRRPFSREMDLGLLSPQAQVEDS

Sequence of Transcription initiation factor TFIID subunit 1-like (Homo sapiens) (Q8IZX4 whole entry): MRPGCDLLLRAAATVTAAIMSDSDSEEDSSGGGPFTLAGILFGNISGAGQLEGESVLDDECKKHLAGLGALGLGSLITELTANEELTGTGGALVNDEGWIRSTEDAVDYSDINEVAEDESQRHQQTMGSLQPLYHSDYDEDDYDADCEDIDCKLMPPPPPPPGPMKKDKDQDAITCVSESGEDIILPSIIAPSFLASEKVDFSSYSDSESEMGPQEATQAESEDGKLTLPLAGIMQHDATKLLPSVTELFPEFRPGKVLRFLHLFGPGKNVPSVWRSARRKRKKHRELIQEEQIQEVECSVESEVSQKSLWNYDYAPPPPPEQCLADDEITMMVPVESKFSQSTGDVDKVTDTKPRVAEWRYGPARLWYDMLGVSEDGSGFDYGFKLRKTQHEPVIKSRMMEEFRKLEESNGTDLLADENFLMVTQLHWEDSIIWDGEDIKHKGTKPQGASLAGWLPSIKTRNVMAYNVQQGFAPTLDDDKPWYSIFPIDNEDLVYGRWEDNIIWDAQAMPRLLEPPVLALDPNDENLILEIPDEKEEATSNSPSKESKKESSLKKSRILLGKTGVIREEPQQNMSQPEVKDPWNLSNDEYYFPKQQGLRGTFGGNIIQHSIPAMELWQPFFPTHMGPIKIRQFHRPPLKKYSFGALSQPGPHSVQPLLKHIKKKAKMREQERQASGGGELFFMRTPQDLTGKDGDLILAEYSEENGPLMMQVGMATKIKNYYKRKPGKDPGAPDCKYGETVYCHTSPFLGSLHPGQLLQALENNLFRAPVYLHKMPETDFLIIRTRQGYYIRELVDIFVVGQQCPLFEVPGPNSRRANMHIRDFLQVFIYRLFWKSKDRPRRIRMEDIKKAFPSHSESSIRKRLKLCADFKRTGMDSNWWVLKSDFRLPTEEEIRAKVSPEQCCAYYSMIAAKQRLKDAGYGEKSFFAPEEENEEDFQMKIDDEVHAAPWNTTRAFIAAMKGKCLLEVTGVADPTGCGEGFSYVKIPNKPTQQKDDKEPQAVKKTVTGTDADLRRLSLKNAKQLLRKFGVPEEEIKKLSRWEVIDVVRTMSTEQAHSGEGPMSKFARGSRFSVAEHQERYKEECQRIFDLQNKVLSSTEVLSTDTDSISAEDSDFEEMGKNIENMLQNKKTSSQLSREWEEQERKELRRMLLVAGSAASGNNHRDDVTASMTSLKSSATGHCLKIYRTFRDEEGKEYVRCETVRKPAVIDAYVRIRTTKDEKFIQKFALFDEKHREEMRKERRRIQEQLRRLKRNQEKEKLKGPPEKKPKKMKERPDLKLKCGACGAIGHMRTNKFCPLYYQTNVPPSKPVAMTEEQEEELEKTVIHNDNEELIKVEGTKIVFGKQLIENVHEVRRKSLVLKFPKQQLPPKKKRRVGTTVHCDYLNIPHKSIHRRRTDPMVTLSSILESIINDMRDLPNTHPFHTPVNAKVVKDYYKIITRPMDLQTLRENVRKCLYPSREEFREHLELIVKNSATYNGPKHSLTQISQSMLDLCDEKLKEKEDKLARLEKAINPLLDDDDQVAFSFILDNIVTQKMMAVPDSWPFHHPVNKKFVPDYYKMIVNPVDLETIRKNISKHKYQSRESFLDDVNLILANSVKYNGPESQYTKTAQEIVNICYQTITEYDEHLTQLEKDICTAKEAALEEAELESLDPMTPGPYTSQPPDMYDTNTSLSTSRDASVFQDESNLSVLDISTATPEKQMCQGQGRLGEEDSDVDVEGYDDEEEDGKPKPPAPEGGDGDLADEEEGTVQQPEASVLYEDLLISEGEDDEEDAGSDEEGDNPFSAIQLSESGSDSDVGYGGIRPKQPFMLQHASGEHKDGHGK

With `CN(C)CCCOc1ccc(-c2cc(NCCCn3cccn3)nc(S(C)(=O)=O)n2)cc1` the dTM [1] was < 2 K.

Work on `COc1cc(Nc2nc(C)cc(-c3cnn4nc(OC)ccc34)n2)cc(C(F)(F)F)c1` yielded a % of control [2] of 100%.

`N#Cc1cccc(-c2c[nH]c3ncnc(N4CCOCC4)c23)c1` gave a % of control [3] of 69%.

Compound `CCc1cc(Nc2nccc(-c3c(-c4ccc(OC)c(C(=O)Nc5c(F)cccc5F)c4)nc4ccccn34)n2)c(OC)cc1N1CCC(N2CCN(S(C)(=O)=O)CC2)CC1` has a % of inhibition [4] of 43%.

`CCN(CC)CCCCNc1ncc2cc(-c3cc(OC)cc(OC)c3)c(NC(=O)NC(C)(C)C)nc2n1` gave a % of control [5] of 100%.
